# Legend:
# α4β1 or α9β1 LN18 cells = assay: Association and dissociation (off-rate) kinetics in vitro; type: binding, human
# Description: Eppendorf vials containing α4β1 or α9β1 LN18 cells (0.5×10^6 cells) were treated with 50 nM of R-BC154 (IXb) (100 μl in TBS-2% FBS containing either 1 mM CaCl2—MgCl2 or 1 mM MnCl2 at 37° C. until for 30 min, washed once with the relevant binding buffer and dry pelleted. The cells were treated with 500 nM of an unlabelled competing inhibitor (100 μl, in TBS-2% FBS containing either 1 mM CaCl2—MgCl2 or 1 mM MnCl2) at 37° C. for the times indicated (0, 2.5, 5, 15, 30, 45, 60 min). The cells were diluted with cold TBS-2% FBS (containing the relevant cations), pelleted by centrifugation, washed once and resuspended (˜200 μl) in binding buffer for flow cytometric analysis. Mean channel fluorescence was plotted against time and the data was fitted to either a one-phase or two-phase exponential decay function using GraphPad Prism 6. The off-rate, koff was extrapolated from the curves.
# Eppendorf vials containing α4β1 or α9β1 LN18 cells (0.5×10^6 cells) in 50 μl TBS-2% FBS containing either 1 mM CaCl2—MgCl2 or 1 mM MnCl2 were pre-activated in a heating block for 20 min at 37° C. […] Mean channel fluorescence was plotted against time and the data was fitted to either a one-phase or two phase association function using GraphPad Prism 6. The observed on-rate, kobs was extrapolated from the curves and kon was calculated using […]
# [1] = test system: progenitors (LSK) and HSC (LSKSLAM) in peripheral blood; assay: HSC mobilization to peripheral blood in mice; type: in vivo; conditions: single agent, single dose
# Description: For mobilization experiments, all mice received subcutaneous injections at 100 μl/10 gm body weight and PB was harvested by throat bleed using EDTA coated syringes.
# (a) R-BC154 (IXb) and BOP. Mice received a single injection of freshly prepared solutions of R-BC154 (IXb) and BOP in saline at the doses indicated before PB was harvested by throat bleed at the times indicated.
# (b) G-CSF. Mice received G-CSF at 250 μg/kg twice daily (500 ug/kg/day), 6-8 hours apart for 4 consecutive days. Groups receiving G-CSF and BOP received the standard G-CSF regime as described above followed by a single injection of BOP 1 h prior to harvest. Control mice received an equal volume of saline.
# Mice received subcutaneous injections at 100 μl/10 gm body weight of a single injection of BOP (up to 15 mg/kg) for various timeframes, a single BIO5192 injection at 1 mg/kg for 1 hour, a single AMD3100 injection at 3 mg/kg for 1 hour (mice also receiving BOP or BIO15192 were injected with a single dose of BOP or BIO15192 1 hour prior to harvest), or G-CSF at 250 μg/kg twice daily (500 μg/kg/day), 6-8 hours apart for 4 consecutive days (mice also receiving BOP and/or AMD3100 were injected with a single dose of BOP and/or AMD3100 1 h prior to harvest). Control mice received an equivalent volume of saline or 10% HPβCD/saline where appropriate.
compound,measurement,setting,value
CCN(CC)c1ccc2c(-c3ccc(S(=O)(=O)NCc4cn(C5C[C@@H](C(=O)N[C@@H](Cc6ccc(OC(=O)N7CCCC7)cc6)C(=O)O)N(S(=O)(=O)c6ccccc6)C5)nn4)cc3S(=O)(=O)[O-])c3ccc(=[N+](CC)CC)cc-3oc2c1 (stereo partly drawn) [R-BC154 (IXb)],off-rates for α9β1 compared to α4β1,α4β1 or α9β1 LN18 cells,significantly reduced off-rates
same,binding affinities relative to BOP,α4β1 or α9β1 LN18 cells; association and dissociation kinetics studies in vitro,lower binding affinities
same,increase in PB progenitors (LSK) and HSC (LSKSLAM),[1],moderate increases

# — patent US20170340693A1, “DISLODGEMENT AND RELEASE OF HSC USING ALPHA 9 INTEGRIN ANTAGONIST AND CXCR4 ANTAGONIST” (COMMONWEALTH SCIENTIFIC AND INDUSTRIAL RESEARCH ORGANISATION, priority 2014, published 2017)
